The subject of this experiment is Human tumor cells Hmy-2 (HLA-DR class II positive B cell line). As to the kind of experiment: Recognition, internalization, labeling and drug release. Format: cell-based. The following applies: drug transported into the cell by cyclodextrin on the BH1/fluorophore/penetrating peptide gold nanoparticles, 1:1:1:1 molar ratio. The text has this:
The antibody described above, BH1 functionalized with the PNA-B sequence, has been conjugated to 13 nm gold nanoparticles previously functionalized with the PNA-A sequence by means of the complementary strand hybridization technique. […] On the other hand and due to the possibility of producing a multifunctionalization by using the presented technology, molecules of a cell-penetrating peptide with the DNA-B sequence could further be bound to the nanostructures by hybridization, as occurred with BH1 to the nanoparticles. Furthermore and continuing with the possibility of producing multifunctionalization by using the presented technology, fluorescent labeling molecules functionalized with the DNA-B sequence could be bound to the previous nanostructures by hybridization, as occurred with the BH1 to the nanoparticles. […] To conclude and continuing with multifunctionalization allowed by the presented technology, molecules of cyclodextrin functionalized with the DNA-B sequence could be bound to the previous nanostructures by hybridization as occurred with BH1, fluorophore and penetrating peptide to the nanoparticles, using a 1:1:1:1 molar ratio, respectively.

Structures are written as SMILES.

As for `CC1(C)CCC2=C(O1)c1ccccc1C(=O)C2=O` [β-Lapachone], the cell death result is “selectively induced cell death”.

The record behind these values is US20140275509A1, “MULTIFUNCTIONALIZED MATERIALS” (Nanoimmunotech SRL, priority 2011, published 2014).
